The source of these data is patent US6495715B2, “Calcium channel blockers” (Warner-Lambert Company, priority 1997, dated 2002).

One test has as its system DBA/2 mice. Kind of test: Audiogenic seizure (anticonvulsant) test in DBA/2 mice. It counts as in vivo. The settings on record: Mus musculus, intravenous, sound-induced tonic seizures, tested 15 or 45 minutes after injection, read-out: DBA/2 mice % Protection. The protocol:
In vivo Biological Protocol:
A compound of the present invention was dissolved in water using 10% (weight/volume) Emulphor (GAF Corp., Wayne, N.J.) surfactant. Substances were administered by intravenous injection into the retro-orbital venous sinus. All testing was performed 15 minutes or 45 minutes after drug injection. All the male mice, 3-4 weeks old were obtained from Jackson Laboratories Bar Harbour, Me. Immediately before anticonvulsant testing, mice were placed upon a wire mesh, 4 inches square suspended from a steel rod. The square was slowly inverted through 180 degrees and mice observed for 30 seconds. Any mouse falling from the wire mesh was scored as ataxia.
Mice were placed into an enclosed acrylic plastic chamber (21 cm height, approximately 30 cm diameter) with a high-frequency speaker (4 cm diameter) in the center of the top lid. An audio signal generator (Protek model B-810) was used to produce a continuous sinusoidal tone that was swept linearly in frequency between 8 kHz and 16 kHz once each 10 msec. The average sound pressure level (SPL) during stimulation was approximately 100 dB at the floor of the chamber. Mice were placed within the chamber and allowed to acclimatize for 1 minute. DBA/2 mice in the vehicle-treated group responded to the sound stimulus (applied until tonic extension occurred, or for a maximum of 60 sec) with a characteristic seizure sequence consisting of wild running followed by clonic seizures, and later by tonic extension, and finally by respiratory arrest and death in 80% or more of the mice. In vehicle-treated mice, the entire sequence of seizures to respiratory arrest lasts approximately 15-20 seconds.
The incidence of all the seizure phases in the drug-treated and vehicle-treated mice was recorded, and the occurrence of tonic seizures were used for calculating anticonvulsant ED50 values by probit analysis. Mice were used only once for testing at each time and dose point.

Another test deals with T1, N-type Ca2+ channel (Homo sapiens, UniProt Q00975).
T1 construct: host or cells: IMR-32 cells, differentiated with dibutyryl cAMP and bromodeoxyuridine
Briefly: Measurement of N-type Ca2+ channel blocking potencies in IMR-32 cells using the fluorescent Ca2+ indicator Indo-1. Format: cell-based. The settings on record: for IC50: K+-stimulated Ca2+ flux, 5 μM nitrendipine to block L-type channels; for inhibition at 1 µM: 1 μM compound, read-out: IMR 32 % of Blockade @ 1 μM; for inhibition at 1 µM / inhibition at 10 µM: 5 μM nitrendipine; for inhibition at 10 µM: 10 μM compound, read-out: IMR 32 % of Blockade @ 10 μM. The protocol: Measurement of N-type Ca^2+ Channel Blocking Potencies of Compounds in IMR-32 Cells Using the Fluorescent Ca^2+Indicator Indo-1
IMR-32 cells are a human tumoral cell line of neural origin. […] Calcium flux into these cells may be induced by stimulation with elevated potassium concentrations. The L-channel component of calcium flux may be blocked by adding 5 μM nitrendipine. The remaining component of calcium entry into the IMR-32 cells is due to calcium flux through N-type calcium channels. Intracellular calcium concentrations are measured using the fluorescent calcium indicator Indo-1. The effect of drug concentration on calcium uptake is studied.
The IMR-32 cell line was obtained from the American Type Culture Collection (Rockville, Md.). Cells were grown in Eagle's Minimum Essential Medium with Earle's salts supplemented with 10% fetal bovine serum, 2 mM L-Gln and antibiotic/antimycotic mixture (Gibco). […] After 7 to 13 days of differentiation, cells were detached using 0.5 mM EDTA and loaded with 5 μM Indo-1 acetoxymethyl ester (Molecular Probes, Eugene, Oreg.) at 30° C. for 45 minutes. Loaded cells were washed twice, resuspended (˜10^7 cells/mL) in assay buffer (10 mM HEPES/Tris pH 7.4 in Hank's Balanced Salt Solution without bicarbonate or phenol red containing 0.5% bovine serum albumin) and kept on ice until use. Fluorescence measurements were carried out in a Photon Technology International (PTI, South Brunswick, N.J.) Model RF-F3004 spectrofluorometer with dual emission monochromators using excitation at […] and emission at 400 and 490 nm. The instrument was equipped with a thermostated cuvette holder with stirring capabilities as well as with a computer-controlled pump which allowed for reagent addition during measurement. Instrument control and data collection was done by PTI's OSCAR software running on an IBM compatible computer. Different concentrations of the test compounds (60 μL in dimethyl sulfoxide) were added to 5.94 mL of assay buffer containing approximately 3×10^6 loaded cells, and 5 μM Nitrendipine (in […] EtOH) to block L-type Ca^2+ channels. Samples were incubated for 10 minutes at 30° C. and then aliquoted into three 10×10 mm disposable acrylic cuvettes. Emission signals at 400 and 490 nm were acquired from each cuvette at 30° C. for 50 seconds. At 20 seconds after the start of reading, cells were depolarized by the addition of 160 μL of stimulation solution (1 M KCl, 68 mM CaCl2) to the cuvette via the computer-controlled pump. Ratio of dual emission signals (400 nm/490 nm), which is proportional to intracellular Ca^2+ concentration, was plotted against time, and the difference between maximal response after stimulation and basal value (before stimulation) was determined. Values obtained in this way were plotted as a function of drug concentration. IC50 values of test compounds were calculated by fitting a four-parameter logistic function to the data using the least squares method.

T1 sequence (Q00975 whole entry): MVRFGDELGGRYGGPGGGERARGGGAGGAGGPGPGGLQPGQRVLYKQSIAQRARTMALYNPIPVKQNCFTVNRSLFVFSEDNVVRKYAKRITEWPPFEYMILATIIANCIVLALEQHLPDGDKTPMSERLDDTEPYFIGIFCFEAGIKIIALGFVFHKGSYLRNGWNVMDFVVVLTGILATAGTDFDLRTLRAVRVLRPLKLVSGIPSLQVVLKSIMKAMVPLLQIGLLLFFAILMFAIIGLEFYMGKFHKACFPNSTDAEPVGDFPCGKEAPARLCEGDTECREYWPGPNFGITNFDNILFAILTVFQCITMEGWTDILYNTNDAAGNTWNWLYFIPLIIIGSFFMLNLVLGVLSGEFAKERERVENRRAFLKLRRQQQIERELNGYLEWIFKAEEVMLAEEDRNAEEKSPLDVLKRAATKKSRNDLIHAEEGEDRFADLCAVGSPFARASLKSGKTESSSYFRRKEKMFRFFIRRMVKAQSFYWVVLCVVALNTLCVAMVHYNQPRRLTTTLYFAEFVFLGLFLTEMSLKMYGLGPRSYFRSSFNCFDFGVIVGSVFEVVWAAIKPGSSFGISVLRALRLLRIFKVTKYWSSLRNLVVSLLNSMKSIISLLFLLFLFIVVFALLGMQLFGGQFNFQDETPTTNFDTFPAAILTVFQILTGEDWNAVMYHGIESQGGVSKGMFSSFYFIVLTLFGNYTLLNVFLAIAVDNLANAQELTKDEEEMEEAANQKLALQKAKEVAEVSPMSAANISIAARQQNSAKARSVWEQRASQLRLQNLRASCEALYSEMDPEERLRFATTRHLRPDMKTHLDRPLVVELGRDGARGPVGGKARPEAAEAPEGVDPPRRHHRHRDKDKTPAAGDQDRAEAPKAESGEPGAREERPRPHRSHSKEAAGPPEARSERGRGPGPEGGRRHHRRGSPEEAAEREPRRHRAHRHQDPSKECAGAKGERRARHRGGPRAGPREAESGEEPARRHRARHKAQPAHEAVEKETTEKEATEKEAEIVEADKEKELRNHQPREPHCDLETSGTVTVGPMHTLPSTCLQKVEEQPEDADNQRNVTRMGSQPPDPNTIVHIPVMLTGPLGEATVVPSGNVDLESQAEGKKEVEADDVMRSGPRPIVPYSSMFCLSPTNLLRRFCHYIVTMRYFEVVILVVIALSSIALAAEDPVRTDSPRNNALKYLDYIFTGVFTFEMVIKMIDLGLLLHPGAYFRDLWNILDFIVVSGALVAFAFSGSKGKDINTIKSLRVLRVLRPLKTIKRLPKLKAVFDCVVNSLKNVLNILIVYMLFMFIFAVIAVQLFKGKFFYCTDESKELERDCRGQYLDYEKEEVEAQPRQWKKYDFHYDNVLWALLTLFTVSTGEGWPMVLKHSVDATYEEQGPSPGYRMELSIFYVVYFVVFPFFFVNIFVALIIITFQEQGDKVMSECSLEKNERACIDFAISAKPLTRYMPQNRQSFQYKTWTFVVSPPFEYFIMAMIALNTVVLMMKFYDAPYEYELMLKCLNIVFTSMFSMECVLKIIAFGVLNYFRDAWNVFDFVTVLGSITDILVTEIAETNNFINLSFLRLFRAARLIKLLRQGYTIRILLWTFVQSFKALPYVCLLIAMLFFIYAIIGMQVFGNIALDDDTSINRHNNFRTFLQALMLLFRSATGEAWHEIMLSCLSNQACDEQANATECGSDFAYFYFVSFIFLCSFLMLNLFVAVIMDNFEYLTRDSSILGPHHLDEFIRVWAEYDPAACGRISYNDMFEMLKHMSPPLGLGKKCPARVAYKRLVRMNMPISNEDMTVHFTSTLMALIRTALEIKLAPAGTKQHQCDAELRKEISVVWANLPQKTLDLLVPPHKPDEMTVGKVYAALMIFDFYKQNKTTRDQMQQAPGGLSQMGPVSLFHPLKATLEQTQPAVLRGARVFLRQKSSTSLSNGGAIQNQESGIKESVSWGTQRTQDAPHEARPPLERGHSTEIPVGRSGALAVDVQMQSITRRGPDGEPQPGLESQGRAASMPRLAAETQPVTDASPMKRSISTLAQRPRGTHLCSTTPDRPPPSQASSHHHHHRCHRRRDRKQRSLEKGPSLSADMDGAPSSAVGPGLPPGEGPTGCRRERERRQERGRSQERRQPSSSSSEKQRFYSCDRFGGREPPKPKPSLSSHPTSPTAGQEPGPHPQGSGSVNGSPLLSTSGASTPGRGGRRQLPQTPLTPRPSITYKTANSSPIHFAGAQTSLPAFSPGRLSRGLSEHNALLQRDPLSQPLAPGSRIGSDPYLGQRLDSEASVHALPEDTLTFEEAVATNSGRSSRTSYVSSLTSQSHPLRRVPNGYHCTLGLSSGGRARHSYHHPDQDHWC
T1 sequence (P54289 25-956 partner limits assumed): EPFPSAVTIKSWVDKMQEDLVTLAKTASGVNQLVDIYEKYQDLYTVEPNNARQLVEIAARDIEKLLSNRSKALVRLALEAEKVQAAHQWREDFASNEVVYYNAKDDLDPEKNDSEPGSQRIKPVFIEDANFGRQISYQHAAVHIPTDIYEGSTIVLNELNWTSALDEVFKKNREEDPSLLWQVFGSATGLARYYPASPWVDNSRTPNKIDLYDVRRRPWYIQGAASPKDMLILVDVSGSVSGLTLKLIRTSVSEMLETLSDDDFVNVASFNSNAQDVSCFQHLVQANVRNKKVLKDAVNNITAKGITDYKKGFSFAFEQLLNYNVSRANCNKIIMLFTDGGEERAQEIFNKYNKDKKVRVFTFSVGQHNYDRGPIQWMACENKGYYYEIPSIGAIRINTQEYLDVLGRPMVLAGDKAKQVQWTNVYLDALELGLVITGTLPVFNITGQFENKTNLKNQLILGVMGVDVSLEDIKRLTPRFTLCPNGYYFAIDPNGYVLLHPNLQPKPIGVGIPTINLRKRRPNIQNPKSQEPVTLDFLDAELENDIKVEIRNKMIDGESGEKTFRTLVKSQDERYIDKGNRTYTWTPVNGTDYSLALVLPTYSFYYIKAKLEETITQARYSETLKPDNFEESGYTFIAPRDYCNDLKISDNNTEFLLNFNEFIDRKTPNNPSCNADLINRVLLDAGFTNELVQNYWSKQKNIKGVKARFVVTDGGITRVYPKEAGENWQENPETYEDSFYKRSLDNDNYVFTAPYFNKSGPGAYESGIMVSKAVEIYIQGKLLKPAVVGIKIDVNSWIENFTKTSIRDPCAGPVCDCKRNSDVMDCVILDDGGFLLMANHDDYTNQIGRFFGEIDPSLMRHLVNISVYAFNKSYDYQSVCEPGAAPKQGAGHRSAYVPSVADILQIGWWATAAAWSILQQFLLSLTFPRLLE
T1 sequence (P54289 957-1103 partner limits assumed): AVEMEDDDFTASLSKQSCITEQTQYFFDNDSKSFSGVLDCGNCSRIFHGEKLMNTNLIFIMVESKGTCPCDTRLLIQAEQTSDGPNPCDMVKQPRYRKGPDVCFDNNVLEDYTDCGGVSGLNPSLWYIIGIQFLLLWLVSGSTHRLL
T1 sequence (Q02641 whole entry partner): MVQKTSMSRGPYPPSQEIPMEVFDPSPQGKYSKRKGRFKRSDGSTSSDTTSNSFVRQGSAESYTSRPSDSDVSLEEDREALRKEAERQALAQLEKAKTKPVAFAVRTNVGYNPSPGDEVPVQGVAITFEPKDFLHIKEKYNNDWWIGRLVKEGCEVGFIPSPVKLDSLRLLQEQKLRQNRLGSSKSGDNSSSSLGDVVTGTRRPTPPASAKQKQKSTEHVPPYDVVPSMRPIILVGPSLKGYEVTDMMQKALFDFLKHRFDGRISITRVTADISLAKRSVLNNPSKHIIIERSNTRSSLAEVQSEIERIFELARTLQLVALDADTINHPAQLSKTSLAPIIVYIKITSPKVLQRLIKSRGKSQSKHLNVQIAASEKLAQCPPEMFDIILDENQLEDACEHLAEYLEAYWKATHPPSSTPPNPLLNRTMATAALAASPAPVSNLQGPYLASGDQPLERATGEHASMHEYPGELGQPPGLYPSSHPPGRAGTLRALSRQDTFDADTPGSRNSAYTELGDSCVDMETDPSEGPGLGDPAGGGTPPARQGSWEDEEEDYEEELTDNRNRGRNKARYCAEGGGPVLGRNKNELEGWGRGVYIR

Regarding `CC(C)=CCN(CC(C)(C)NC(=O)[C@H](CC(C)C)NC(=O)N1CCCCCC1)c1ccc(OCc2ccccc2)cc1` [Example 1], the responders at 30 mg/kg in the test on DBA/2 mice came out at 60%. At N-type Ca2+ channel, this molecule showed a half-maximal inhibitory concentration (IC50) of 260 nM. Regarding `CC(C)=CCN(CC(C)(C)NC(=O)[C@H](CC(C)C)N(C)CC=C(C)C)c1ccc(OCc2ccccc2)cc1` [Example 10, (S)-4-Methyl-2-[methyl-(3-methyl-but-2-enyl)-amino]-pentanoic acid {2-[(4-benzyloxy-phenyl)-(3-methyl-but-2-enyl)-amino]-1,1-dimethyl-ethyl}-amide], the responders at 30 mg/kg in the test with DBA/2 mice worked out at 80%. In addition, on N-type Ca2+ channel, the inhibition at 1 µM is 54% and the inhibition at 10 µM is 82%. In the case of `CC(C)=CCN(c1ccc(OCc2ccccc2)cc1)C1CCN(C(=O)[C@@H](N)CC(C)C)CC1` [Example 20, (S)-2-Amino-1-{4-[(4-benzyloxy-phenyl)-(3-methyl-but-2-enyl)-amino]-piperidin-1-yl}-4-methyl-pentan-1-one], in the test with DBA/2 mice, the responders at 10 mg/kg was found to be 100%. Also, the half-inhibitory concentration (IC50) on N-type Ca2+ channel was 2400 nM. Take `CCC(C)[C@H](N)C(=O)N1CCC(N(CC=C(C)C)c2ccc(OCc3ccccc3)cc2)CC1` (stereo partly drawn) [Example 22, (S)-2-Amino-1-{4-[(4-benzyloxy-phenyl)-(3-methyl-but-2-enyl)-amino]-piperidin-1-yl}-3-methyl-pentan-1-one]: the responders at 10 mg/kg in the test with DBA/2 mice amounted to 100%. Moreover, at N-type Ca2+ channel, the inhibition at 1 µM stood at 39% and the inhibition at 10 µM came out at 90%. In the case of `CC(C)=CCN(c1ccc(OCc2ccccc2)cc1)C1CCN(C(=O)[C@H](CC(C)C)N(C)C)CC1` [Example 23, (S)-1-{4-[(4-Benzyloxy-phenyl)-(3-methyl-but-2-enyl)-amino]-piperidin-1-yl}-2-dimethylamino-4-methyl-pentan-1-one], in the test on DBA/2 mice, the responders at 10 mg/kg was found to be 40%. This molecule also yielded an IC50 against N-type Ca2+ channel of 650 nM. As for `CC(C)=CCN(c1ccc(OCc2ccccc2)cc1)C1CCN(C(=O)[C@H](CC(C)C)NC(C)C)CC1` [Example 24, (S)-1-{4-[(4-Benzyloxy-phenyl)-(3-methyl-but-2-enyl)-amino]-piperidin-1-yl}-2-isopropylamino-4-methyl-pentan-1-one], the midpoint of inhibition against N-type Ca2+ channel, the IC50, lay at 750 nM.

Take `CC(C)=CCN(c1ccc(OCc2ccccc2)cc1)C1CCN(C(=O)[C@H](CC(C)C)NCCC(C)C)CC1` [Example 25, (S)-1-{4-[(4-Benzyloxy-phenyl)-(3-methyl-but-2-enyl)-amino]-piperidin-1-yl}-4-methyl-2-(3-methyl-butylamino)-pentan-1-one]: in the test with DBA/2 mice, the responders at 30 mg/kg stood at 80%. Besides, at N-type Ca2+ channel, the IC50 was determined as 480 nM.

At N-type Ca2+ channel, `CC(C)=CCN(c1ccc(OCc2ccccc2)cc1)C1CCN(C(=O)[C@H](CC(C)C)NC2CCCCC2)CC1` [Example 26, (S)-1-{4-[(4-Benzyloxy-phenyl)-(3-methyl-but-2-enyl)-amino]-piperidin-1-yl}-2-cyclohexylamino-4-methyl-pentan-1-one] came in with an IC50 of 510 nM. On to `CC(C)=CCN(c1ccc(OCc2ccccc2)cc1)C1CCN(C(=O)[C@H](CC(C)C)NCc2ccc[nH]2)CC1` [Example 27, (S)-1-{4-[(4-Benzyloxy-phenyl)-(3-methyl-but-2-enyl)-amino]-piperidin-1-yl}-4-methyl-2-[(1H-pyrrol-2-ylmethyl)-amino]-pentan-1-one], for which the concentration for half-maximal inhibition (IC50) against N-type Ca2+ channel is 390 nM. In the case of `CC(C)C[C@H](NC(=O)N1CCCCCC1)C(=O)N1CCC(Nc2ccc(OCc3ccccc3)cc2)CC1` [Example 28, (S)-Azepane-1-carboxylic acid {1-[4-(4-benzyloxy-phenylamino)-piperidine-1-carbonyl]-3-methyl-butyl}-amide], at N-type Ca2+ channel, the IC50 came out at 2500 nM. In the case of `CCN(c1ccc(OCc2ccccc2)cc1)C1CCN(C(=O)[C@H](CC(C)C)NC(=O)N2CCCCCC2)CC1` [Example 30, (S)-Azepane-1-carboxylic acid (1-{4-[(4-benzyloxy-phenyl)-ethyl-amino]-piperidine-1-carbonyl}-3-methyl-butyl)-amide], the half-inhibitory concentration (IC50) at N-type Ca2+ channel stood at 830 nM. For `CC(C)C[C@H](NC(=O)N1CCCCCC1)C(=O)N1CCC(N(Cc2ccccc2)c2ccc(OCc3ccccc3)cc2)CC1` [Example 31, (S)-Azepane-1-carboxylic acid (1-{4-[benzyl-(4-benzyloxy-phenyl)-amino]-piperidine-1-carbonyl}-3-methyl-butyl)-amide], on N-type Ca2+ channel, the concentration for half-maximal inhibition (IC50) is 430 nM.

Turning to `CC(C)CC(NC(=O)N1CCCCCC1)C(=O)N1CCC(N(CCC(C)O)c2ccc(OCc3ccccc3)cc2)CC1` (centres unmarked) [Example 32, Azepane-1-carboxylic acid (1-{4-[(4-benzyloxy-phenyl)-(3-hydroxy-butyl)-amino]-piperidine-1-carbonyl}-3-methyl-butyl)-amide], the responders at 30 mg/kg in the test with DBA/2 mice was 60%. Further, the midpoint of inhibition against N-type Ca2+ channel, the IC50, lay at 4600 nM. For `CC(C)=CCN(c1ccc(NC(=O)OCc2ccccc2)cc1)C1CCN(C(=O)[C@H](CC(C)C)NC(=O)N2CCCCCC2)CC1` [Example 33, (S)-{4-[(1-{2-[(Azepane-1-carbonyl)-amino]-4-methyl-pentanoyl}-piperidin-4-yl)-(3-methyl-but-2-enyl)-amino]-phenyl}-carbamic acid benzyl ester], the IC50 on N-type Ca2+ channel was determined as 170 nM. `CC(C)CCN(c1ccc(NC(=O)OCc2ccccc2)cc1)C1CCN(C(=O)[C@H](CC(C)C)NC(=O)N2CCCCCC2)CC1` [Example 34, (S)-{4-[(1-{2-[(Azepane-1-carbonyl)-amino]-4-methyl-pentanoyl}-piperidin-4-yl)-(3-methyl-butyl)-amino]-phenyl}-carbamic acid benzyl ester]: at N-type Ca2+ channel, the inhibition at 1 µM came to 83%. In the case of `CC(C)CCN(c1ccc(N)cc1)C1CCN(C(=O)[C@H](CC(C)C)NC(=O)N2CCCCCC2)CC1` [Example 35, (S)-Azepane-1-carboxylic acid (1-{4-[(4-amino-phenyl)-(3-methyl-butyl)-amino]-piperidine-1-carbonyl}-3-methyl-butyl)-amide], the responders at 30 mg/kg in the test with DBA/2 mice was 20%. At N-type Ca2+ channel, this molecule gave an IC50 of 2200 nM. On N-type Ca2+ channel, `CC(C)CCN(c1ccc(NCC2CCCCC2)cc1)C1CCN(C(=O)[C@H](CC(C)C)NC(=O)N2CCCCCC2)CC1` [Example 37, (S)-Azepane-1-carboxylic acid (1-{4-[[4-(Cyclohexylmethyl-amino)-phenyl]-(3-methyl-butyl)-amino]-piperidine-1-carbonyl}-3-methyl-butyl)-amide] returned a half-inhibitory concentration (IC50) of 290 nM. In the case of `CC(C)CCN(c1ccc(NCc2ccccc2)cc1)C1CCN(C(=O)[C@H](CC(C)C)NC(=O)N2CCCCCC2)CC1` [Example 39, (S)-Azepane-1-carboxylic acid (1-{4-[(4-benzylamino-phenyl)-(3-methyl-butyl)-amino]-piperidine-1-carbonyl}-3-methyl-butyl)-amide], at N-type Ca2+ channel, half-maximal inhibition (IC50) was put at 400 nM. On N-type Ca2+ channel, `CC(C)CCN(c1ccc(NCc2ccccn2)cc1)C1CCN(C(=O)[C@H](CC(C)C)NC(=O)N2CCCCCC2)CC1` [Example 40] returned an IC50 of 1100 nM.
